Laboratory results as given in ChEMBL document CHEMBL1201862, “PubChem BioAssay data set” (2004).
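In this assay, cells in 96-well plates receive the compound at five concentrations for 48 hours. Endpoints are linearly interpolated between the surrounding concentrations. GI50 marks 50% less growth.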 The source made the active and inactive calls. Cut-off read from the data, not from the text of the source: active = GI50 up to about 1.1 µM and inactive = higher.

Experiments:
Test in all cases: NCI-60 cell line screen, 48 h
[1] = tested on: MDA-N
[2] = tested on: MDA-MB-435
[3] = tested on: OVCAR-3
[4] = tested on: SF-539
[5] = tested on: PC-3
[6] = tested on: UACC-257
[7] = tested on: HCT-116
[8] = tested on: CCRF-CEM
[9] = tested on: HCC 2998
[10] = tested on: A549
[11] = tested on: RXF 393
[12] = tested on: TK-10
[13] = tested on: NCI-H226
[14] = tested on: HOP-62
[15] = tested on: SK-MEL-28
[16] = tested on: NCI-H522
[17] = tested on: OVCAR-8
[18] = tested on: UACC-62
[19] = tested on: SW-620
[20] = tested on: MCF7
[21] = tested on: K562
[22] = tested on: DU-145
[23] = tested on: SK-MEL-2
[24] = tested on: EKVX
[25] = tested on: CAKI-1
[26] = tested on: MOLT-4
[27] = tested on: SNB-75
[28] = tested on: MDA-MB-231
[29] = tested on: M14
[30] = tested on: SF-295
[31] = tested on: RPMI-8226
[32] = tested on: HCT-15
[33] = tested on: SF-268
[34] = tested on: LOX IMVI
[35] = tested on: UO-31
[36] = tested on: HL-60
[37] = tested on: SNB-19
[38] = tested on: BT-549
[39] = tested on: Hs-578T
[40] = tested on: HOP-92
[41] = tested on: 786-0
[42] = tested on: COLO 205
[43] = tested on: IGROV-1
[44] = tested on: SN12C
[45] = tested on: SK-MEL-5
[46] = tested on: KM12
[47] = tested on: SK-OV-3
[48] = tested on: NCI-H23
[49] = tested on: SR
[50] = tested on: OVCAR-5
[51] = tested on: ACHN
[52] = tested on: A498
[53] = tested on: NCI/ADR-RES
[54] = tested on: OVCAR-4
[55] = tested on: HT-29
[56] = tested on: Malme-3M

`O=C(O)c1ccc(P(=O)(O)c2ccc(C(=O)O)cc2Br)c(Br)c1` was tested, and the GI50 [1] was > 100 µM (inactive), the GI50 [2] was > 100 µM (inactive) and the GI50 [3] was > 100 µM (inactive). For the same molecule, the GI50 [4] was > 100 µM (inactive), the GI50 [5] was > 100 µM (inactive) and the GI50 [6] was > 100 µM (inactive). The GI50 [7] was > 100 µM (inactive), the GI50 [8] was > 10 µM (inactive) and the GI50 [9] was > 100 µM (inactive). The GI50 [10] was > 100 µM (inactive), the GI50 [11] was > 100 µM (inactive) and the GI50 [12] was > 100 µM (inactive). The GI50 [13] was > 100 µM (inactive), the GI50 [14] was > 100 µM (inactive) and the GI50 [15] was > 100 µM (inactive). The GI50 [16] was > 100 µM (inactive), the GI50 [17] was > 100 µM (inactive) and the GI50 [18] was > 100 µM (inactive). For the same molecule, the GI50 [19] was > 100 µM (inactive), the GI50 [20] was > 100 µM (inactive) and the GI50 [21] was > 100 µM (inactive). The GI50 [22] was > 100 µM (inactive), the GI50 [23] was > 100 µM (inactive) and the GI50 [24] was > 100 µM (inactive). The GI50 [25] was > 100 µM (inactive), the GI50 [26] was > 100 µM (inactive) and the GI50 [27] was > 100 µM (inactive). For the same molecule, the GI50 [28] was > 100 µM (inactive), the GI50 [29] was > 100 µM (inactive) and the GI50 [30] was > 100 µM (inactive). For the same molecule, the GI50 [31] was > 100 µM (inactive), the GI50 [32] was over 100 µM and the GI50 [33] was > 100 µM (inactive). The GI50 [34] was > 100 µM (inactive), the GI50 [35] was > 100 µM (inactive) and the GI50 [36] was > 100 µM (inactive). For the same molecule, the GI50 [37] was > 100 µM (inactive), the GI50 [38] was > 100 µM (inactive) and the GI50 [39] was > 100 µM (inactive). For the same molecule, the GI50 [40] was > 100 µM (inactive), the GI50 [41] was > 100 µM (inactive) and the GI50 [42] was > 100 µM (inactive). For the same molecule, the GI50 [43] was > 100 µM (inactive), the GI50 [44] was > 100 µM (inactive) and the GI50 [45] was > 100 µM (inactive). The GI50 [46] was > 100 µM (inactive), the GI50 [47] was > 100 µM (inactive) and the GI50 [48] was > 100 µM (inactive).

With `C=C1C(=O)[C@]23[C@H](O)[C@H]1CC[C@H]2[C@@]12CO[C@@]3(O)C[C@@H]1C(C)(C)CC[C@@H]2O` [MEGATHYRIN A] the GI50 [1] was 7.69 µM (inactive), the GI50 [2] was 4.12 µM (inactive) and the GI50 [3] was 11.5 µM (inactive). For the same molecule, the GI50 [4] was 6.79 µM (inactive), the GI50 [5] was 9.2 µM (inactive) and the GI50 [6] was 6.01 µM (inactive). The GI50 [7] was 5.21 µM (inactive), the GI50 [8] was 7.59 µM (inactive) and the GI50 [49] was 7.55 µM (inactive). For the same molecule, the GI50 [9] was 8.69 µM (inactive), the GI50 [10] was 16.2 µM (inactive) and the GI50 [11] was 4.03 µM (inactive). For the same molecule, the GI50 [12] was 9.75 µM (inactive), the GI50 [13] was 8.22 µM (inactive) and the GI50 [14] was > 25 µM (inactive). The GI50 [15] was 7.14 µM (inactive), the GI50 [16] was 3.63 µM (inactive) and the GI50 [17] was 8.57 µM (inactive). The GI50 [19] was 5.5 µM (inactive), the GI50 [20] was 6.18 µM (inactive) and the GI50 [21] was 7.41 µM (inactive). For the same molecule, the GI50 [22] was 9.53 µM (inactive), the GI50 [50] was > 25 µM (inactive) and the GI50 [51] was 4.84 µM (inactive). The GI50 [24] was 9.79 µM (inactive), the GI50 [52] was 7.45 µM (inactive) and the GI50 [25] was 8.47 µM (inactive). The GI50 [26] was 7.11 µM (inactive), the GI50 [27] was 4.91 µM (inactive) and the GI50 [28] was 5.66 µM (inactive). For the same molecule, the GI50 [30] was 12.3 µM (inactive), the GI50 [31] was 7.4 µM (inactive) and the GI50 [32] was 6.95 µM. For the same molecule, the GI50 [33] was 6.34 µM (inactive), the GI50 [34] was 4.25 µM (inactive) and the GI50 [35] was 13.8 µM (inactive). For the same molecule, the GI50 [36] was 8.45 µM (inactive), the GI50 [37] was 21.2 µM (inactive) and the GI50 [38] was 4.37 µM (inactive). The GI50 [53] was 9.66 µM (inactive), the GI50 [54] was > 25 µM (inactive) and the GI50 [39] was 7.29 µM (inactive). The GI50 [40] was > 25 µM (inactive), the GI50 [41] was 9.57 µM (inactive) and the GI50 [55] was 6.21 µM (inactive). For the same molecule, the GI50 [42] was 3.98 µM (inactive), the GI50 [43] was 7.14 µM (inactive) and the GI50 [56] was 6.71 µM (inactive). For the same molecule, the GI50 [44] was 7.85 µM (inactive), the GI50 [45] was 13 µM (inactive) and the GI50 [46] was 6.22 µM (inactive). For the same molecule, the GI50 [48] was 7.4 µM (inactive).
